In US7842812B2, “Substituted 5-aminomethy1-1H-pyrrole-2-carboxylic acid amides” (Gruenenthal GmbH, priority 2004, dated 2010) one finds inhibition, 5HT uptake inhibition and NA uptake inhibition data, which are given here for ten compounds.

T2 sequence (P31652 whole entry): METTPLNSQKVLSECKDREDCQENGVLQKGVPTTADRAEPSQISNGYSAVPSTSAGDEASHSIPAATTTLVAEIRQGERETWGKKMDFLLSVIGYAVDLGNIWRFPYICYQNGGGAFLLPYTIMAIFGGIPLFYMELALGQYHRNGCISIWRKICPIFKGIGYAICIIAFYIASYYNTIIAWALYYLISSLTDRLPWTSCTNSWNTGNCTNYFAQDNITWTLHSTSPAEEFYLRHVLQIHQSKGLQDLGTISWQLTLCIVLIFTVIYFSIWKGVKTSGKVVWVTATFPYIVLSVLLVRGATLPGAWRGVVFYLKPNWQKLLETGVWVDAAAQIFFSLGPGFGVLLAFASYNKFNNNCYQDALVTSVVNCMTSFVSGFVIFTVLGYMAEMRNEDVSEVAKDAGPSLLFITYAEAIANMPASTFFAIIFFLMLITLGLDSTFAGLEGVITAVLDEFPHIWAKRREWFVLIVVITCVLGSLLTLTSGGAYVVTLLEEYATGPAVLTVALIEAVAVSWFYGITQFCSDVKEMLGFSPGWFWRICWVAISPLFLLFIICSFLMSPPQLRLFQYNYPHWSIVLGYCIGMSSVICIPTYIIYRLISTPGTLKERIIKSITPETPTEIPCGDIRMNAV
T1 sequence (P35372 whole entry): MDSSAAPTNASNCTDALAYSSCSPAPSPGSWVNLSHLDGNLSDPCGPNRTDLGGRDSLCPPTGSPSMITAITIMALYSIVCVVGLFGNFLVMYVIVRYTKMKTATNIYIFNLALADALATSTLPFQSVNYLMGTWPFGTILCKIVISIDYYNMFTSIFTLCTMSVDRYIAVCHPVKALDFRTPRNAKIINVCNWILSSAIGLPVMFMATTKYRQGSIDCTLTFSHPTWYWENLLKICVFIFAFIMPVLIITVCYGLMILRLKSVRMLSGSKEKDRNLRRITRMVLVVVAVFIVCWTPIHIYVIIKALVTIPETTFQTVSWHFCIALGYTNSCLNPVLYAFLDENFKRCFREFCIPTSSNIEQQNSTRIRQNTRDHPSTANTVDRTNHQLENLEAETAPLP

The first assay has as its target T1, human μ opioid receptor (Homo sapiens, UniProt P35372).
T1 construct: purchased NEN, Zaventem, Belgium RB-HOM; host or cells: CHO-K1 cells (membrane preparation)
Description: Affinity for human μ opioid receptor ([3H]-naloxone displacement, CHO-K1 membrane preparation, SPA). Conditions: percentage inhibition of specific [3H]-naloxone binding; compound concentration 1 μmol/l; read-out: OR μ1 human naloxone inhibition [%]. On the procedure: a) Method for Determining Affinity for Human μ Opioid Receptor
Receptor affinity for the human μ opioid receptor is determined in a homogeneous batch in microtitre plates. […] Once the ninety minute incubation time had elapsed, the microtitre plates were centrifuged off for 20 minutes at 1000 g and the radioactivity measured in a β-Counter (Microbeta-Trilux, from PerkinElmer Wallac, Freiburg, Germany). The percentage displacement of the radioactive ligand from its binding to the human μ opiate receptor is determined at a concentration of the compounds to be tested of 1 μmol/l and stated as percentage inhibition of specific binding. […]
The affinity of the 5-aminomethyl-1H-pyrrole-2-carboxylic acid amides according to the invention for the μ receptor was determined as described above.
With `CC1CCCCN1Cc1ccc(C(=O)N2CCCC2)n1C` (stereo not drawn) [Example 3, [1-Methyl-5-(2-methyl-piperidin-1-ylmethyl)-1H-pyrrol-2-yl]-pyrrolidin-1-yl methanone], the inhibition at 1 µM is 83%.
Consider `CC1CCCCN1Cc1ccc(C(=O)N2CCCCC2)n1C` (stereo not drawn) [Example 10, [1-Methyl-5-(2-methyl-piperidin-1-ylmethyl)-1H-pyrrol-2-yl]-piperidin-1-yl methanone], for which the inhibition at 1 µM stood at 86%.

A further assay concerns the target T2, 5-HT transporter (Rattus norvegicus, UniProt P31652).
T2 construct: from tissue; host or cells: rat brain synaptosomes (P2 fraction) from medulla and pons
Description: 5-HT uptake inhibition in rat brain synaptosomes (medulla and pons). The format is biochemical. Conditions: 10 μM. The text has this: (§1) b) Method for Determining Noradrenalin and 5-HT Uptake Inhibition:
(§2) Synaptosomes from rat brain regions are freshly isolated for in vitro studies, as described in the publication “The isolation of nerve endings from brain” by E. G. Gray and V. P. Whittaker, J. Anatomy 96, pages 79-88, 1962, the disclosure of which is hereby incorporated by reference. The tissue (hypothalamus for the determination of noradrenalin uptake inhibition and medulla and pons for the determination of 5-HT uptake inhibition) is homogenized in ice-cooled 0.32 M sucrose (100 mg of tissue/1 ml) in a glass homogenizer with Teflon pestle using five complete up and down strokes at 840 revolutions/minute. The homogenate is centrifuged at 4° C. for 10 minutes at 1000 g. After subsequent centrifugation at 17000 g for 55 minutes, the synaptosomes (P2 fraction) are obtained, which are resuspended in 0.32 M […] (0.5 ml/100 mg of original weight).
The particular uptake is measured in a 96-well microtitre plate. The volume is 250 μl and the incubation proceeds at room temperature (approx. 20-25° C.) under an O2 atmosphere. The incubation time is 7.5 minutes for [^3H]-NA and 5 minutes for [^3H]-5-HT. The 96 samples are then filtered through a Unifilter GF/B® microtitre plate (Packard) and washed with […] of incubated buffer using a “Brabdel MPXRI-96T Cell-Harvester”. The Unifilter GF/B plate is dried for 1 hour at 55° C. […] After sealing with a Top Seal® (Packard) and establishing an equilibrium (around 5 hours), radioactivity is determined in a “Trilux 1450 Microbeta” (Wallac).
The quantity of protein used in the above determination corresponds to the values known from the literature, as for example described in “Protein measurement with the folin phenol reagent”, Lowry et al., J. Biol. Chem., 193, 265-275, 1951. […]
(§3) The 5-HT reuptake inhibition and noradrenalin reuptake inhibition of the 5-aminomethyl-1H-pyrrole-2-carboxylic acid amides according to the invention were determined as described above.
`CC1CCN(Cc2ccc(C(=O)N(C)Cc3ccccc3)n2C)CC1` [Example 1, 1-Methyl-5-(4-methyl-piperidin-1-ylmethyl)-1H-pyrrole-2-carboxylic acid benzyl-methyl amide] came in with a 5HT uptake inhibition of 70 % inhibition.
`Cn1c(CN2CCCCCC2)ccc1C(=O)N1CCCC1` [Example 2, (5-Azepan-1-ylmethyl-1-methyl-1H-pyrrol-2-yl)-pyrrolidin-1-yl methanone] showed a 5HT uptake inhibition of 60 % inhibition.
Same read-out and setting: next, `CC1CCCCN1Cc1ccc(C(=O)N2CCCC2)n1C` (stereo not drawn) [Example 3, [1-Methyl-5-(2-methyl-piperidin-1-ylmethyl)-1H-pyrrol-2-yl]-pyrrolidin-1-yl methanone]: 52 % inhibition.

The target of the next assay is T3, NA transporter (Rattus norvegicus, UniProt Q63380).
T3 construct: from tissue; host or cells: rat brain synaptosomes (P2 fraction) from hypothalamus
T3 sequence (Q63380 1-617): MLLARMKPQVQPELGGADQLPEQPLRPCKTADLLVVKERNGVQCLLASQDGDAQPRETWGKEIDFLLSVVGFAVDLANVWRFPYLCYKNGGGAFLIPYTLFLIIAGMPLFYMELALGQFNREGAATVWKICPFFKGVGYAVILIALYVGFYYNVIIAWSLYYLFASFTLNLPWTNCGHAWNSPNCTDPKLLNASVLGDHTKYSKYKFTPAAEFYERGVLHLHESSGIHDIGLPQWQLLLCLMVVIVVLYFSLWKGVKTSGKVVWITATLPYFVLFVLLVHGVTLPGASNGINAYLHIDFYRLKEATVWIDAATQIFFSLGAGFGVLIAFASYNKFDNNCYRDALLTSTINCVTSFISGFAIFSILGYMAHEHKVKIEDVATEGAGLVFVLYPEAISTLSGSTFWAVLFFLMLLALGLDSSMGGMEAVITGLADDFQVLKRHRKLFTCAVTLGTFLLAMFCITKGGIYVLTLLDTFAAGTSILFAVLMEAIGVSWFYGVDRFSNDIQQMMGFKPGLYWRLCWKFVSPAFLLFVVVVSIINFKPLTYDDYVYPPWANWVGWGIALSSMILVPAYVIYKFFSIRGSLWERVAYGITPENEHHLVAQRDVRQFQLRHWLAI
Description: Noradrenalin (NA) uptake inhibition in rat brain synaptosomes (hypothalamus). Format: biochemical. Conditions: 10 μM.
Excerpt: as §1, §2
The particular uptake is measured in a 96-well microtitre plate. The volume is 250 μl and the incubation proceeds at room temperature (approx. 20-25° C.) under an O2 atmosphere. The incubation time is 7.5 minutes for [^3H]-NA and 5 minutes for [^3H]-5-HT. The 96 samples are then filtered through a Unifilter GF/B® microtitre plate (Packard) and washed with […] of incubated buffer using a “Brabdel MPXRI-96T Cell-Harvester”. The Unifilter GF/B plate is dried for 1 hour at 55° C. The plate is then sealed with a Back Seal® (Packard) and 35 μl of scintillation fluid are added per well (Ultima Gold®, Packard). After sealing with a Top Seal® (Packard) and establishing an equilibrium (around 5 hours), radioactivity is determined in a “Trilux 1450 Microbeta” (Wallac).
The quantity of protein used in the above determination corresponds to the values known from the literature, as for example described in “Protein measurement with the folin phenol reagent”, Lowry et al., J. Biol. Chem., 193, 265-275, 1951. A detailed description of the method may additionally be found in the literature, for example in M. Ch. Frink, H.-H. Hennies, W. Engelberger, M. Haurand and B. Wilffert (1996) Arzneim.-Forsch./Drug Res. 46 (III), 11, 1029-1036, the disclosures of which are hereby incorporated by reference.
The following characteristics were determined for the NA or 5-HT transporter: NA uptake: Km=0.32±0.11 μM 5HT uptake: Km=0.084±0.011 μM. c) Investigation of Analgesic Efficacy by the Writhing Test
as §3
“1-Methyl-5-pyrrolidin-1-ylmethyl-1H-pyrrole-2-carboxylic acid benzyl amide [Example 4]” had an NA uptake inhibition of 82 % inhibition.
On the same count and under the same terms, as for `CC1CCN(Cc2ccc(C(=O)N(C)Cc3ccccc3)n2C)CC1` [Example 1, 1-Methyl-5-(4-methyl-piperidin-1-ylmethyl)-1H-pyrrole-2-carboxylic acid benzyl-methyl amide], the figure is 81 % inhibition.
In turn, `CC1CCCCN1Cc1ccc(C(=O)N(C)Cc2ccccc2)n1C` (stereo not drawn) [Example 5, 1-Methyl-5-(2-methyl-piperidin-1-ylmethyl)-1H-pyrrole-2-carboxylic acid benzyl-methyl amide] showed an NA uptake inhibition of 81 % inhibition.
Same read-out and setting: next, `CCOC(=O)C1CCN(Cc2ccc(C(=O)N(Cc3ccccc3)Cc3ccccc3)n2C)CC1` [Example 6, 1-(5-Dibenzylcarbamoyl-1-methyl-1H-pyrrol-2-ylmethyl)-piperidine-4-carboxylic acid ethyl ester]: 74 % inhibition.
Regarding `CN(C(=O)c1ccc(CN2CCC(Cc3ccccc3)CC2)n1C)C1CCCCC1` [Example 7, 5-(4-Benzyl-piperidin-1-ylmethyl)-1-methyl-1H-pyrrole-2-carboxylic acid cyclohexyl-methyl amide], the NA uptake inhibition was 62 % inhibition.
The compound `Cn1c(CN2CCC(Cc3ccccc3)CC2)ccc1C(=O)N1CCCCC1` [Example 8, [5-(4-Benzyl-piperidin-1-ylmethyl)-1-methyl-1H-pyrrol-2-yl]-piperidin-1-yl methanone] had an NA uptake inhibition of 61 % inhibition.
In turn, `CC1CCCCN1Cc1ccc(C(=O)N(Cc2ccccc2)C(C)C)n1C` (stereo not drawn) [Example 9, 1-Methyl-5-(2-methyl-piperidin-1-ylmethyl)-1H-pyrrole-2-carboxylic acid benzyl-isopropyl amide] returned an NA uptake inhibition of 59 % inhibition.

In general, inhibition refers to the relative decrease from the control value, in per cent.
